According to paper PMC11054638, “Transport of Non-Steroidal Anti-Inflammatory Drugs across an Oral Mucosa Epithelium In Vitro Model” (Pharmaceutics, 2024):

Tests used:
[1] = tested on: TR146 oral mucosa in vitro model; assay: High-throughput (96.96) qPCR chip, mRNA expression after inflammation studies; type: cell-based, human; details: 48 h, normalised to control; mean ± SD
Description: ThinCerts® were seeded with cells as described above. […] Three days before the experiments, cell layers and blanks were washed twice on the basolateral compartment with 900 µL cultivation media (DMEM supplemented with 10% Fetal Calf Serum and 1% Penicillin/Streptomycin) to remove anti-inflammatory hydrocortisone residues (a component of media supplement HKGS) and were further cultivated in cultivation media.
Prior to treating cells with prepared DMEM solutions, TEER was measured in cultivation media DMEM supplemented with 1% Penicillin/Streptomycin and 10% Fetal Calf Serum. Subsequently, cell layers and blanks were washed with DMEM (without supplements) twice on the apical and basolateral compartment, followed by TEER measurements in DMEM. Media of cells were replaced with previously prepared DMEM solutions. Control media was applied on the blanks. […] Subsequently, 10 µM carboxyfluorescein was added to the apical DMEM solutions and incubated in the incubator at 37 °C for 2 h. Media were immediately collected and measured for the RFU content using the EnSpire as described above. Afterwards, media were stored at −20 °C until further usage. Two cell-grown ThinCerts^TM of each treatment were pooled as one sample with 350 µL lysis buffer supplemented with 1% ß-mercaptoethanol and stored at −80 °C for RNA isolation.
In short, RNA samples collected at the 48-hour timepoint of the inflammation studies and generated by pooling two cell-grown inserts were tested as duplicates on the expression of 95 markers and 1 negative control (H2O). The mRNA samples were amplified with three different primer pools containing 54 primers (PPIA, ACTB, GAPDH, B2M, CLDN1, CLDN2, CLDN3, CLDN4, CLDN5, CLDN6, CLDN7, CLDN8, CLDN9, CLDN10tva, […]
MARVELD2, ZO-1, ZO-2, ZO-3, SLC2A1, SLC7A1, SLC7A5, SLC16A1, ABCB1, ABCC1, ABCC2, ABCC3, ABCC4, ABCC5, ABCG2, INSR, LRP1, TFRC, VEGF-A, CDH5, VWF), 32 primers (CK1, CK4, […]
Quality control of generated data excluded Ct measured outside of the marker’s melting temperature ± 1.5 °C. To calculate the relative expression for each marker, the relative quantitative value was first calculated by subtracting the mean Ct values of control samples from the Ct values of treated samples and potentiating the resulting ΔCt by the power of 2 (=2ΔCt). The geometric mean of housekeeping genes […]
the relative quantitative value of each marker was divided by the calculated geometric mean of housekeeping genes of the respective sample. Subsequent expression values of treated samples were […]
Tested RNA samples were collected after three independent experiments with 4 treatment groups (Control, INF, INF+Ibu, Ibu) per experiment (N=12). Statistical analysis was performed as two-way ANOVA with post hoc Holm–Sidak test with *p<0.05, **p<0.01, ***p<0.001 and […]

[2] = tested on: COX-1 and COX-2 protein in TR146 cells; assay: Western blot for COX-1 and COX-2 after inflammation study; type: cell-based, human; details: 48 h treatment
[3] = CXlogD at pH 7.4 ref https://ebi.ac.uk (02.04.2024); cited from earlier work
PC3 cells = details: 1500 µM for 24 h ref 60; cited from earlier work

## CC(C)Cc1ccc(C(C)C(=O)O)cc1 (stereo not drawn) [ibuprofen]
[1]
  ABCB1 mRNA expression: 1.01± 0.04 n-fold
  ABCC1 mRNA expression: 1.26± 0.46 n-fold
  ABCC2 mRNA expression: 0.7± 0.65 n-fold
  ABCC3 mRNA expression: 0.97± 1.21 n-fold
  ABCC4 mRNA expression: 1.46± 0.5 n-fold
  ABCC5 mRNA expression: 0.69± 0.34 n-fold
  ABCG2 mRNA expression: 0.87± 1.23 n-fold
  AMY mRNA expression: 0.38± 0.43 n-fold
  AQP1 mRNA expression: 0.34± 0.19 n-fold
  AQP3 mRNA expression: 0.76± 0.67 n-fold
  AQP5 mRNA expression: 1.57± 1.16 n-fold
  AQP9 mRNA expression: 0.93± 0.04 n-fold
  AQP10 mRNA expression: 1.38± 0.72 n-fold
  AQP11 mRNA expression: 0.66 ± 0.07 n-fold
  CDH1 mRNA expression: 0.93± 0.62 n-fold
  CK1 mRNA expression: 11.98± 16.81 n-fold
  CK4 mRNA expression: 1.53± 1.73 n-fold
  CK5 mRNA expression: 0.27± 0.28 n-fold
  CK7 mRNA expression: 3.07± 2.11 n-fold
  CK8 mRNA expression: 0.92± 0.68 n-fold
  CK10 mRNA expression: 1.63± 2.38 n-fold
  CK13tv1 mRNA expression: 1.34± 0.93 n-fold
  CK14 mRNA expression: 1.53± 0.93 n-fold
  CK18 mRNA expression: 0.79± 0.85 n-fold
  CK19 mRNA expression: 1.53± 0.26 n-fold
  CLDN1 mRNA expression: 0.52± 0.71 n-fold
  CLDN2 mRNA expression: 5.02 n-fold
  CLDN3 mRNA expression: 1.95 n-fold
  CLDN4 mRNA expression: 0.74± 1.1 n-fold
  CLDN5 mRNA expression: 7.17± 10.76 n-fold
  CLDN6 mRNA expression: 1.83± 0.78 n-fold
  CLDN7 mRNA expression: 0.51± 0.72 n-fold
  CLDN8 mRNA expression: 0.49± 0.46 n-fold
  CLDN9 mRNA expression: 1.07± 1.46 n-fold
  CLDN10tva mRNA expression: 1.49± 2.21 n-fold
  CLDN11 mRNA expression: 0.6± 0.1 n-fold
  CLDN12tv1 mRNA expression: 0.73± 0.3 n-fold
  CLDN12tv2 mRNA expression: 0.47± 0.35 n-fold
  CLDN12tv3 mRNA expression: 0.79± 0.25 n-fold
  CLDN14 mRNA expression: 1.51 n-fold
  CLDN15 mRNA expression: 0.98± 0.96 n-fold
  CLDN16 mRNA expression: 1.79± 1.1 n-fold
  CLDN17 mRNA expression: 1.66± 1.15 n-fold
  CLDN18tv2a mRNA expression: 6.08± 8.62 n-fold
  CLDN21 mRNA expression: 1.29 n-fold
  CLDN22 mRNA expression: 0.4± 0.53 n-fold
  CLDN24 mRNA expression: 0.62 n-fold
  CLDN25tv1-4 mRNA expression: 0.65± 0.77 n-fold
  CLDN25tv7 mRNA expression: 1.34± 0.38 n-fold
  CLDN27 mRNA expression: 0.26 n-fold
  DSG3 mRNA expression: 0.83± 0.85 n-fold
  INSR mRNA expression: 0.52± 0.39 n-fold
  JAM1 mRNA expression: 0.5± 0.67 n-fold
  JAM2 mRNA expression: 0.55 n-fold
  LOR mRNA expression: 2.69± 2.89 n-fold
  LRP1 mRNA expression: 0.68± 0.36 n-fold
  MARVELD2 mRNA expression: 2.92± 1.97 n-fold
  MFSD2A mRNA expression: 0.85± 0.6 n-fold
  MUC1A mRNA expression: 0.53± 0.42 n-fold
  MUC1B mRNA expression: 0.81± 0.36 n-fold
  MUC3A mRNA expression: 2.34± 2.52 n-fold
  MUC5AC mRNA expression: 0.76± 0.17 n-fold
  MUC15tv2 mRNA expression: 0.46± 0.21 n-fold
  MUC18 mRNA expression: 0.89± 0.56 n-fold
  MUC20 mRNA expression: 1.43± 0.61 n-fold
  OCLN mRNA expression: 1.16± 1.05 n-fold
  PECAM1 mRNA expression: 0.77 n-fold
  SLC2A1 mRNA expression: 0.4± 0.26 n-fold
  SLC7A1 mRNA expression: 0.54± 0.49 n-fold
  SLC7A5 mRNA expression: 0.56± 0.91 n-fold
  SLC16A1 mRNA expression: 0.32± 0.48 n-fold
  TFRC mRNA expression: 0.79± 0.87 n-fold
  VEGF-A mRNA expression: 0.5± 0.27 n-fold
  VIM mRNA expression: 0.56± 0.52 n-fold
  VWF mRNA expression: 1.28 n-fold
  ZO-1 mRNA expression: 0.91± 0.81 n-fold
  ZO-2 mRNA expression: 1.26± 0.5 n-fold
  ZO-3 mRNA expression: 0.51± 0.84 n-fold
[2]
  COX-2 protein expression: no up-regulation of COX-2
[3]
  XlogD: 1.34
PC3 cells
  COX-2 expression: upregulation of COX-2
